One may read the inhibition as the drop in the measured response relative to a control, in per cent. As a reminder, the Ki is the dissociation constant of the complex between target and ligand, obtained from inhibition or displacement. Read a high Ki as weaker binding.

2 compounds from patent US20260315487A1, “IKK-ALPHA INHIBITORS” (Cancer Research Technology Limited, priority 2023, published 2026) can be followed below.

Common to all, as to type: biochemical
One test concerns the target T1, MKK7 P (Homo sapiens, UniProt O14733).
T1 sequence (O14733 1-419): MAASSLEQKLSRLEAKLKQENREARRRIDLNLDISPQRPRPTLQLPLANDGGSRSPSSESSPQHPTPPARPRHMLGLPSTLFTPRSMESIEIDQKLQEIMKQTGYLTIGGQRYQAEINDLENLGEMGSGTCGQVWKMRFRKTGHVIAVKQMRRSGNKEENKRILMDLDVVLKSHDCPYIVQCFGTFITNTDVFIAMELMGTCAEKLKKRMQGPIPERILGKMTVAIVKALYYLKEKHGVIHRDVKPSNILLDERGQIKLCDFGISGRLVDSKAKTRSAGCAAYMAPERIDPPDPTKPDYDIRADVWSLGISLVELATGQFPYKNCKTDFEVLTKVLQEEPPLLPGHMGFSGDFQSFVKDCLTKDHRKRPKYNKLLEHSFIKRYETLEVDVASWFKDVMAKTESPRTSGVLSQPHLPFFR
Description: kinome profiling at 1 μM, MKK7. From the text: (§1) We profiled three compounds from the series across the kinome (FIG. 11). […] To identify the structural drivers for CDK inhibition, we obtained X-ray crystal structures of 5 y and 6 g SU1336 and SU1349 with CDK-2 (FIG. 12A) to potentially identify possible routes towards introducing selectivity for IKKα over the CDK enzymes as well as IKKβ. […] All three derivatives form complexes with CDK2 with the pyrrolo[2,3 -b]pyridine H-bonding to GK+3 (Leu 83 ) and the aminoindazole projected towards the G-loop (FIG. 12A), forming H-bonds with Glu 51 and Lys 33 at the back of the pocket. The adoption of the 4 SU1253 -type orientation, rather than the flipped pose observed in IKKα, is probably facilitated by Tr-stacking between the aminoindazole and the GK residue, which in the CDKs is Phe, rather than Met. […] For 6 g SU1349, the hydrophobic pendant benzyloxy group points out into solvent, but can form face-to-edge Tr-Tr interactions with Phe 82 and His 84 from the hinge. Exchanging the hydrophobic pendant benzyloxy group for the morpholinoethyl-containing substituent in 5 y SU1336 removes any direct interaction with these hinge residues, preferring to sit in a more solvent-exposed position, as befits a basic side chain that will be protonated at physiological pH (FIG. 12B).

The target in a further test is CDK5 (Homo sapiens, UniProt Q00535). Nature of the test: kinome profiling at 1 μM, CDK5. To be noted: read-out: % inhibition of CDK5.
Sequence of CDK5 (Q00535 whole entry, species assumed): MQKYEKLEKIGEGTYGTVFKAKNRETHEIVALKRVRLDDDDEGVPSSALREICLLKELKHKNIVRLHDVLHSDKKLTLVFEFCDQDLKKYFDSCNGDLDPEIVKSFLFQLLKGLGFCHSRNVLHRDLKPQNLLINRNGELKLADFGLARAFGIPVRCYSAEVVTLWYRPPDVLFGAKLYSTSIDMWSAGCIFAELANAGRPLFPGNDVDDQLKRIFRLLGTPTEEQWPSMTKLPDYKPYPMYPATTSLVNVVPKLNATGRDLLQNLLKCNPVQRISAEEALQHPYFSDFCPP
Sequence of CDK5 (Q15078 99-307 partner limits assumed, species assumed): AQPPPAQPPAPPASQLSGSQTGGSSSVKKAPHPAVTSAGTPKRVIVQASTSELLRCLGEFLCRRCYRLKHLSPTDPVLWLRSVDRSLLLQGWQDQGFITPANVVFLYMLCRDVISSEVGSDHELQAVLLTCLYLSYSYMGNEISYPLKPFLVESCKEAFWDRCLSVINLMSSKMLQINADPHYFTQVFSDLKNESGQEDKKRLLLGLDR
Source text: as §1
(§2) Black, 4 SU1253; grey, 5 r SU1261; diagonal stripes, 6 g SU1349. […] All tested compounds (4 SU1253, 5 r SU1261 and 6 g SU1349 ) inhibited CDK5 and CDK9 with >80 %.

The next test addresses CDK9 (Homo sapiens, UniProt P50750). Description: kinome profiling at 1 μM, CDK9. To be noted: read-out: % inhibition of CDK9.
Source text: as §1, §2

The target in another test is T2, IKKβ (Homo sapiens, UniProt O14920).
T2 sequence (O14920 1-756): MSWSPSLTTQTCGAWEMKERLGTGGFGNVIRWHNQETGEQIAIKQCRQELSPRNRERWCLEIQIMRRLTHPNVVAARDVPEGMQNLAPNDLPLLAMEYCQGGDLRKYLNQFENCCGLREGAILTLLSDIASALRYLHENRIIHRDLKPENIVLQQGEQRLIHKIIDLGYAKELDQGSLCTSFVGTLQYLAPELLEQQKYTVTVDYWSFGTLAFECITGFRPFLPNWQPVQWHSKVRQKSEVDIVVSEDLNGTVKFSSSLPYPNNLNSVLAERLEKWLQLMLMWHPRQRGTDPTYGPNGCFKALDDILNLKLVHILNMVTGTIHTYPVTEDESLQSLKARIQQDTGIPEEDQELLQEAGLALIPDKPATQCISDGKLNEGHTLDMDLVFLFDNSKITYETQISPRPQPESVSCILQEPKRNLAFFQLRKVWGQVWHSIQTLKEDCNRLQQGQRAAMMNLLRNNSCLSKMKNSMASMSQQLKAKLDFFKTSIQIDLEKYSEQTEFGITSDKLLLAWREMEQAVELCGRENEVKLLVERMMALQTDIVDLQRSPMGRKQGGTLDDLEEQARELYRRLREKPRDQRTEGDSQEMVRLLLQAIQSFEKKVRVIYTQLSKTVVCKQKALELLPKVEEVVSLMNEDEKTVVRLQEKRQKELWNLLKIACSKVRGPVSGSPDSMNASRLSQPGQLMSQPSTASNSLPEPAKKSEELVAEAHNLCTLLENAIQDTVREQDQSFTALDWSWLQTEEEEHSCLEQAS
Nature of the test: in-house DELFIA kinase assay, IKKβ.

In another test the test system is panel of kinases. Nature of the test: kinome profiling at 1 μM.
Source text: as §1, §2

Where two headings read alike, the source gives them in different places.

Sequence of CDK9 (P50750 whole entry, species assumed): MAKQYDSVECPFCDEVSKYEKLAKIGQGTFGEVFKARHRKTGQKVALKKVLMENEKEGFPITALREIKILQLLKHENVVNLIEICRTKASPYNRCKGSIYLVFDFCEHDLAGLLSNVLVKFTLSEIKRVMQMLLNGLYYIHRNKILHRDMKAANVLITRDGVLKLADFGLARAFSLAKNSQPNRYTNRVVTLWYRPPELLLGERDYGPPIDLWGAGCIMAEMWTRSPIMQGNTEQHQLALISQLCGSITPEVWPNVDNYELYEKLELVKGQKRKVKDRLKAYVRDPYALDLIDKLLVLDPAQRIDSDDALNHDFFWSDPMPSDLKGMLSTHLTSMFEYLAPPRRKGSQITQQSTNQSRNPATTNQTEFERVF
Sequence of CDK9 (O60563 whole entry partner, species assumed): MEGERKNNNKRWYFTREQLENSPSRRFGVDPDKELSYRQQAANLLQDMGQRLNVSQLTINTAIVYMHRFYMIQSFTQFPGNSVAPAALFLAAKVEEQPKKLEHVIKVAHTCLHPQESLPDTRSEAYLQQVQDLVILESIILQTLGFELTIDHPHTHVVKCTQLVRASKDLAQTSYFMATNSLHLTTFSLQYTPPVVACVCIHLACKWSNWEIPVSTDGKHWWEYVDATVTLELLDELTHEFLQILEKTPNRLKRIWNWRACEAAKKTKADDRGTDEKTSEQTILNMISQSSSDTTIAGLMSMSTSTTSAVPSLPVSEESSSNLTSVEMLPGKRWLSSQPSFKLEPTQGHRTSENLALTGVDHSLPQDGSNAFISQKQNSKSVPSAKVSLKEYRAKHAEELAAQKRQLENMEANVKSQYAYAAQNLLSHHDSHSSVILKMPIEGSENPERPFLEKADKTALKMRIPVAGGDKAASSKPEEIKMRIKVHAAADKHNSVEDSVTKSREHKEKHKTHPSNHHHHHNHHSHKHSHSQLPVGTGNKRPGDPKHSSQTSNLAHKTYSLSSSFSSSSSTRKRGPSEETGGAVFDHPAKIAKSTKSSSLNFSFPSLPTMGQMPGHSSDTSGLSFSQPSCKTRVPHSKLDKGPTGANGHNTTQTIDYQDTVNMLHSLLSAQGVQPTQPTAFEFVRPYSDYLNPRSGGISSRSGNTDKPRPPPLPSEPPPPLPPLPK

As for `Nc1n[nH]c2ccc(-c3ccnc4[nH]c(-c5cccc(OCc6ccccc6)c5)cc34)cc12` [5r SU1261, 5-(2-(3-(benzyloxy)phenyl)-1 H-pyrrolo[2,3-b]pyridin-4-yl)-1 H-indazol-3-amine], the inhibition at 1 µM on MKK7 P (read-out: % inhibition of MKK7), on CDK5 (1 μM) and on CDK9 (1 μM) was over 80% throughout. Besides, the “IKKβ inhibition, in words” value at IKKβ is recorded as “lowest activity against IKKβ”. Moreover, the Ki on IKKβ amounted to 680 nM. Also, the “number of kinases inhibited by >80 %” value in the test on panel of kinases (panel of 231 kinases) and in the test with panel of kinases (panel of 253 kinases (FIG. 11)) was 10 kinases each time.
With `Nc1n[nH]c2ccc(-c3ccnc4[nH]c(-c5ccnc(OCc6ccccc6)c5)cc34)cc12` [6g SU1349, 5-(2-(2-(Benzyloxy)pyridin-4-yl)-1 H-pyrrolo[2,3-b]pyridin-4-yl)-1 H-indazol-3-amine], the “off-target inhibition of MKK7, in words” value on MKK7 P (1 μM, compared with 5r SU1261) is reported as “significantly reduced off-target inhibition”. Further, the inhibition at 1 µM at CDK5 and on CDK9 was over 80% in each case. Moreover, affinity at IKKβ was put at a Ki of 3350 nM. Also, the “number of kinases inhibited by >80 %” value in the test on panel of kinases (panel of 253 kinases (FIG. 11)) was 4 kinases.
